Measured values reported in PMC4468608, “A distinct p53 target gene set predicts for response to the selective p53–HDM2 inhibitor NVP-CGM097” (eLife, 2015).
Where two headings read alike, the source gives them in different places.

System: cell lines from the Cancer Cell Line Encyclopedia (CCLE)
Experiment: High-throughput cell viability assay, CCLE cell line panel (n = 356)
Format: cell-based, human
Conditions: Homo sapiens
Experimental: Cell lines were partitioned into sensitive and insensitive groups based on compound potency (IC50). […] All other cell lines were obtained from ATCC (American Type Culture Collection), DSMZ (Deutsche Sammlung von Mikroorganismen und Zellkulturen), and HSRRB (Health Science Research Resources Bank) and cultured in RPMI or Dulbecco's modified Eagle's medium plus 10% FBS (Invitrogen, Carlsbad, CA) at 37°C, 5% CO2.

## COc1cc2c(cc1OC(C)C)[C@H](c1ccc(Cl)cc1)N(c1ccc(N(C)C[C@H]3CC[C@H](N4CCNC(=O)C4)CC3)cc1)C(=O)C2 [NVP-CFC218]
HCC-56, TP53 MUT
  IC50: > 8 µM
HCT 116 TP53(-/-), HCT 116, TP53 WT
  IC50: 3.38 µM
HCT-15, HCT-15, TP53 MUT
  IC50: > 8 µM
HD-MY-Z, TP53 MUT
  IC50: > 8 µM
HEC-50B, TP53 MUT
  IC50: > 8 µM
HEC-59, TP53 MUT
  IC50: > 8 µM
HEC-151, TP53 MUT
  IC50: 7.91 µM
HEL 92.1.7, HEL 92.1.7, TP53 MUT
  IC50: > 8 µM
HEY A8, Hey-A8, TP53 WT
  IC50: 3.12 µM
HGC-27, HGC-27, TP53 MUT
  IC50: 7.41 µM
HH, TP53 MUT
  IC50: > 8 µM
HLF, TP53 MUT
  IC50: > 8 µM
HMC-1-8, TP53 MUT
  IC50: > 8 µM
HPBALL, HPB-ALL, TP53 MUT
  IC50: > 8 µM
HSC-2, read-out: NVP- CFC218 IC50 (µM), cell line HSC-2, upper_aerodigestive_tract, TP53 MUT
  IC50: > 8 µM
HSC-3, HSC-3, TP53 MUT
  IC50: > 8 µM
HSC-4, HSC-4, TP53 MUT
  IC50: > 8 µM
HT-29, HT-29, TP53 MUT
  IC50: > 8 µM
HT-144, HT-144, TP53 WT
  IC50: 3.86 µM
HepG2, Hep G2, TP53 WT
  IC50: 1.95 µM
Hs 294T, TP53 MUT
  IC50: 3.61 µM
Hs 683, Hs 683, TP53 MUT
  IC50: > 8 µM
Hs 695T, TP53 WT
  IC50: 3.65 µM
Hs 729, TP53 MUT
  IC50: > 8 µM
Hs746T, Hs 746T, TP53 MUT
  IC50: > 8 µM
Hs766T, Hs 766T, TP53 MUT
  IC50: > 8 µM
Hs 936.T, TP53 WT
  IC50: 6.44 µM
Hs-578T, Hs 578T, TP53 MUT
  IC50: > 8 µM
HuCCT-1, HuCCT1, TP53 MUT
  IC50: > 8 µM
HuT78, HuT 78, TP53 MUT
  IC50: > 8 µM
Huh-7, HuH-7, TP53 MUT
  IC50: > 8 µM
IA-LM, TP53 MUT
  IC50: > 8 µM
IGR-39, IGR-39, TP53 MUT
  IC50: > 8 µM
IGROV-1, IGROV1, TP53 MUT
  IC50: > 8 µM
IM95, read-out: NVP- CFC218 IC50 (µM), cell line IM95, stomach, TP53 WT
  IC50: > 8 µM
IPC-298, IPC-298, TP53 MUT
  IC50: > 8 µM
IST-MES2, TP53 MUT
  IC50: > 8 µM
J82, TP53 MUT
  IC50: > 8 µM
JHH7, JHH-7, TP53 MUT
  IC50: > 8 µM
JHH-4, JHH-4, TP53 MUT
  IC50: > 8 µM
JHUEM-2, TP53 WT
  IC50: 1.73 µM
JMSU-1, JMSU-1, TP53 MUT
  IC50: > 8 µM
JVM-3, JVM-3, TP53 WT
  IC50: 3.64 µM
K029AX, TP53 WT
  IC50: 3.61 µM
KARPAS-299, KARPAS-299, TP53 MUT
  IC50: > 8 µM
KATO III, TP53 MUT
  IC50: > 8 µM
KCL-22, KCL-22, TP53 MUT
  IC50: > 8 µM
KE-39, TP53 MUT
  IC50: > 8 µM
KE-97, KE-97, TP53 WT
  IC50: 1.38 µM
KMBC-2, TP53 MUT
  IC50: 3.55 µM
KMM-1, KMM-1, TP53 MUT
  IC50: > 8 µM
KMRC-1, read-out: NVP- CFC218 IC50 (µM), cell line KMRC-1, kidney, TP53 WT
  IC50: > 8 µM
KMS-11, KMS-11, TP53 WT
  IC50: > 8 µM
KMS-26, KMS-26, TP53 MUT
  IC50: > 8 µM
KMS-27, read-out: NVP- CFC218 IC50 (µM), cell line KMS-27, haem._and_lymphoid_tissue, TP53 WT
  IC50: > 8 µM
KMS-28BM, read-out: NVP- CFC218 IC50 (µM), cell line KMS-28BM, haem._and_lymphoid_tissue, TP53 WT
  IC50: > 8 µM
KNS-42, read-out: NVP- CFC218 IC50 (µM), cell line KNS-42, central_nervous_system, TP53 MUT
  IC50: > 8 µM
KNS-60, TP53 MUT
  IC50: > 8 µM
KNS-62, KNS-62, TP53 MUT
  IC50: > 8 µM
KO52, TP53 MUT
  IC50: > 8 µM
KP4, TP53 WT
  IC50: > 8 µM
KP-2, TP53 MUT
  IC50: > 8 µM
KP-3, TP53 MUT
  IC50: > 8 µM
KP-N-SI9s, TP53 WT
  IC50: 1.2 µM
KS-1, TP53 WT
  IC50: 2.2 µM
KU812, KU812, TP53 MUT
  IC50: > 8 µM
KU-19-19, KU-19-19, TP53 WT
  IC50: 6.89 µM
KYM-1, TP53 WT
  IC50: 2.95 µM
KYSE-30, KYSE-30, TP53 MUT
  IC50: > 8 µM
KYSE-70, KYSE-70, TP53 MUT
  IC50: > 8 µM
KYSE-140, KYSE-140, TP53 MUT
  IC50: > 8 µM
KYSE-180, KYSE-180, TP53 MUT
  IC50: > 8 µM
KYSE-410, read-out: NVP- CFC218 IC50 (µM), cell line KYSE-410, oesophagus, TP53 MUT
  IC50: > 8 µM
KYSE-450, read-out: NVP- CFC218 IC50 (µM), cell line KYSE-450, oesophagus, TP53 MUT
  IC50: > 8 µM
KYSE-510, read-out: NVP- CFC218 IC50 (µM), cell line KYSE-510, oesophagus, TP53 MUT
  IC50: > 8 µM
KYSE-520, read-out: NVP- CFC218 IC50 (µM), cell line KYSE-520, oesophagus, TP53 MUT
  IC50: > 8 µM
L3.3, TP53 WT
  IC50: > 8 µM
L-363, L-363, TP53 MUT
  IC50: > 8 µM
L-428, read-out: NVP- CFC218 IC50 (µM), cell line L-428, haem._and_lymphoid_tissue, TP53 MUT
  IC50: > 8 µM
LC-1/sq-SF, TP53 MUT
  IC50: > 8 µM
LCLC-103H, TP53 MUT
  IC50: > 8 µM
LK-2, TP53 MUT
  IC50: > 8 µM
LN-18, LN-18, TP53 MUT
  IC50: > 8 µM
LN-229, read-out: NVP- CFC218 IC50 (µM), cell line LN-229, central_nervous_system, TP53 WT
  IC50: > 8 µM
LOU-NH91, LOU-NH91, TP53 MUT
  IC50: > 8 µM
